Assay [1] addresses HDAC8 (Homo sapiens (Human), UniProt Q9BY41). Kind of assay: Inhibition of HDAC8. The format is biochemical. The conditions noted are these: for IC50 PCI34051/IC50 compound: inhibition of HDAC8, relative potency (Tables 1-3); for A (relative potency to PCI34051): inhibition of HDAC8, footnote: (Tables 11-13); for IC50: mean SD of three determinations.
Assay [2] has as its system HeLa nuclear HDACs. The assay can be described thus: Inhibition of HeLa nuclear HDACs (HeLa nuclear extract, mainly HDACs1-3). The format is biochemical. To be noted: read-out: HeLa HDAC IC50.

Where “and” joins values, the source holds several entries; their conditions need not be identical. Equal entries are not always repeated.

Sequence of HDAC8 (Q9BY41 whole entry): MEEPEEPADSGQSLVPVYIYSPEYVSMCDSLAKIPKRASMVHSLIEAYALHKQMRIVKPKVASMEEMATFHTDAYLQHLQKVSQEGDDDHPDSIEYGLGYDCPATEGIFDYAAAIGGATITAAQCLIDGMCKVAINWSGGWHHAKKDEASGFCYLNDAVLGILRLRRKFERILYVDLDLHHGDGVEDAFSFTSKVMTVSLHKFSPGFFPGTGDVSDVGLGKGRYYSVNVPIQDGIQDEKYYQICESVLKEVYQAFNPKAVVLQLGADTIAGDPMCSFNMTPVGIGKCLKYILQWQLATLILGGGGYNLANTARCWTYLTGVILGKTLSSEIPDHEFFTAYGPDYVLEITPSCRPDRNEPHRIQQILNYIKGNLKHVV

For `COc1cc(Nc2cc(C(F)(F)F)ccc2/C=C/C(=O)NO)cc(OC)c1OC` [Compound 15b], in assay [1], the “IC50 PCI34051/IC50 compound” value is on record as 0.55 and the “A (relative potency to PCI34051)” value is listed as 0.55. Also, the half-maximal inhibitory concentration (IC50) in assay [2] was above 10 µM.

For `COc1ccc(/C=C/C(=O)NO)c(-c2ccc(F)cc2)c1` [Compound 5d], in assay [1], the “IC50 PCI34051/IC50 compound” value is 1.90 and the “A (relative potency to PCI34051)” value worked out at 1.90. Besides, the IC50 in assay [2] is above 10 µM.

For the compound `COc1ccc(/C=C/C(=O)NO)c(Nc2ccccc2OC)c1` [Compound 6b], in assay [1], the “IC50 PCI34051/IC50 compound” value came to 0.17 and the “A (relative potency to PCI34051)” value came out at 0.17. In addition, the half-inhibitory concentration (IC50) in assay [2] was above 10 µM.

On to `CCCCOc1ccc(/C=C/C(=O)NO)c(-c2ccccc2)c1` [Compound 27b, (E)-N-Hydroxy-4-butoxy-2-phenylcinnamide], for which the figures for the IC50 in assay [1] and in assay [2] were 0.289 ± 0.0301 µM and above 10 µM, respectively.

Take `COc1cc(Nc2cc(F)ccc2/C=C/C(=O)NO)cc(OC)c1OC` [Compound 15a]: in assay [1], the “IC50 PCI34051/IC50 compound” value stood at 0.38 and the “A (relative potency to PCI34051)” value worked out at 0.38. Also, the IC50 in assay [2] is above 10 µM.

With `COc1ccc(COc2cc(OC)ccc2/C=C/C(=O)NO)cc1` [Compound 13d, (E)-N-Hydroxy-2-(4-methoxybenzyloxy)-4-methoxycinnamide], the concentration for half-maximal inhibition (IC50) was 0.397 ± 0.0127 µM in assay [1] and above 10 µM in assay [2].

`COc1ccc(/C=C/C(=O)NO)c(-c2cc(OC)c(OC)c(OC)c2)c1` [Compound 5a]: in assay [1], the “IC50 PCI34051/IC50 compound” value was 0.29 and the “A (relative potency to PCI34051)” value was 0.29. Moreover, in assay [2], the half-maximal inhibitory concentration (IC50) is above 10 µM.

Take `COc1ccc(/C=C/C(=O)NO)c(Nc2ccc(OC)c(OC)c2)c1` [Compound 6e]: in assay [1], the “IC50 PCI34051/IC50 compound” value turned out to be 0.44 and the “A (relative potency to PCI34051)” value was 0.44. Moreover, the half-inhibitory concentration (IC50) in assay [2] was above 10 µM.

Regarding `COc1ccc(/C=C/C(=O)NO)c(OCc2ccccc2)c1` [Compound 13a, (E)-N-Hydroxy-2-benzyloxy-4-methoxycinnamide], the values for the IC50 in assay [1] and in assay [2] were 0.207 ± 0.0134 µM and above 10 µM, respectively.

Regarding `COc1ccc(/C=C/C(=O)NO)c(Oc2cc(OC)c(OC)c(OC)c2)c1` [Compound 25], in assay [1], the “IC50 PCI34051/IC50 compound” value was found to be 0.49 and the “A (relative potency to PCI34051)” value turned out to be 0.49. Besides, in assay [2], the half-maximal inhibitory concentration (IC50) was above 10 µM.

For `COc1ccc(Nc2cc(OC)ccc2/C=C/C(=O)NO)cc1` [Compound 6d], in assay [1], the “IC50 PCI34051/IC50 compound” value is 0.30 and the “A (relative potency to PCI34051)” value came to 0.30. For the same compound, the IC50 in assay [2] is above 10 µM.

Regarding `COc1ccc(/C=C/C(=O)NO)c(OCc2ccc(Br)cc2)c1` [Compound 13c, (E)-N-Hydroxy-2-(4-bromobenzyloxy)-4-methoxycinnamide], the 50% inhibitory concentration (IC50) in assay [2] is above 10 µM.

Regarding `O=C(/C=C/c1ccc(-c2ccccc2)cc1-c1ccccc1)NO` [Compound 27d, (E)-N-Hydroxy-2,4-diphenylcinnamide], the results for the concentration for half-maximal inhibition (IC50) in assay [1] and in assay [2] were 0.1749 ± 0.0002 µM and above 10 µM, respectively.

Regarding `COc1ccc(/C=C/C(=O)NO)c(-c2ccccc2)c1` [Compound 22a, (E)-N-Hydroxy-4-methoxy-2-phenylcinnamide], the IC50 in assay [1] was 0.072 µM and 0.0724 µM; in assay [2], above 10 µM.

For `COc1cccc(Nc2cc(OC)ccc2/C=C/C(=O)NO)c1` [Compound 6c], in assay [1], the “IC50 PCI34051/IC50 compound” value came out at 0.44 and the “A (relative potency to PCI34051)” value is recorded as 0.44. The concentration for half-maximal inhibition (IC50) in assay [2] was above 10 µM.

`COc1ccc(OC(C)COc2cc(OC)ccc2/C=C/C(=O)NO)cc1` (centres unmarked) [Compound 18b, (E)-N-Hydroxy-2-(2-(4-methoxyphenoxyoxy)propoxy)-4-methoxycinnamide]: the IC50 is 0.191 ± 0.0022 µM in assay [1] and above 10 µM in assay [2].

Turning to `COc1ccc(/C=C/C(=O)NO)c(-c2cccc3ccccc23)c1` [Compound 22c, (E)-N-Hydroxy-4-methoxy-2-(naphthalen-1-yl)cinnamide], the IC50 in assay [1] is 0.078 ± 0.0043 µM; in assay [2], above 10 µM.

In the case of `COc1cc(Nc2ncccc2/C=C/C(=O)NO)cc(OC)c1OC` [Compound 21], in assay [1], the “IC50 PCI34051/IC50 compound” value stood at 0.68 and the “A (relative potency to PCI34051)” value came to 0.68. Besides, in assay [2], the IC50 is above 10 µM.

Consider `COc1cc(Nc2c(/C=C/C(=O)NO)ccc(OC)c2OC)cc(OC)c1OC` [Compound 15d], for which, in assay [1], the “IC50 PCI34051/IC50 compound” value was 0.44 and the “A (relative potency to PCI34051)” value was determined as 0.44. Besides, in assay [2], the IC50 is above 10 µM.

Take `COc1ccc(/C=C/C(=O)NO)c(-c2ccc(Oc3ccccc3)cc2)c1` [Compound 22e, (E)-N-Hydroxy-4-methoxy-2-(4-phenoxyphenyl)cinnamide]: in assay [1], the “fold less potent than 22a (HDAC8)” value is reported as “three” and the 50% inhibitory concentration (IC50) was found to be 0.174 ± 0.0059 µM. The half-inhibitory concentration (IC50) in assay [2] is above 10 µM.

Regarding `COc1ccc(/C=C/C(=O)NO)c(-c2cccc(Cl)c2)c1` [Compound 5c], in assay [1], the “IC50 PCI34051/IC50 compound” value is on record as 1.17 and the “A (relative potency to PCI34051)” value came out at 1.17. Further, the IC50 in assay [2] was above 10 µM.

On to `CCCCCOc1ccc(/C=C/C(=O)NO)c(-c2ccccc2)c1` [Compound 27c, (E)-N-Hydroxy-4-pentoxy-2-phenylcinnamide], for which the half-maximal inhibitory concentration (IC50) in assay [1] is 0.186 ± 0.0598 µM; in assay [2] it was above 10 µM.

On to `COc1ccc(/C=C/C(=O)NO)c(Nc2ccccc2)c1` [Compound 6a], for which, in assay [1], the “IC50 PCI34051/IC50 compound” value turned out to be 0.40 and the “A (relative potency to PCI34051)” value is 0.40. Further, in assay [2], the IC50 is above 10 µM.

`COc1ccc(/C=C/C(=O)NO)c(-c2cncc3ccccc23)c1` [Compound 5g]: in assay [1], the “IC50 PCI34051/IC50 compound” value is recorded as 0.28 and the “A (relative potency to PCI34051)” value is recorded as 0.28. Further, in assay [2], the IC50 amounted to 0.7984 ± 0.0003 µM.

As to `CCCOc1ccc(/C=C/C(=O)NO)c(-c2ccccc2)c1` [Compound 27a, (E)-N-Hydroxy-4-propoxy-2-phenylcinnamide], the IC50 in assay [1] was 0.133 ± 0.0126 µM; in assay [2], above 10 µM.

Take `COc1ccc(/C=C/C(=O)NO)c(Nc2cc(OC)c(OC)c(OC)c2)c1` [Compound 6f]: in assay [1], the “IC50 PCI34051/IC50 compound” value came to 0.24 and the “A (relative potency to PCI34051)” value is on record as 0.24. Further, the IC50 in assay [2] was above 10 µM.

With `CCCC(COc1cc(OC)ccc1/C=C/C(=O)NO)Oc1ccc(OC)cc1` (centres unmarked) [Compound 18d, (E)-N-Hydroxy-2-(2-(4-methoxyphenoxyoxy)pentyloxy)-4-methoxycinnamide], the results for the concentration for half-maximal inhibition (IC50) in assay [1] and in assay [2] were 0.2 ± 0.0065 µM and above 10 µM, respectively.

Turning to `COc1ccc(OCCOc2cc(OC)ccc2/C=C/C(=O)NO)cc1` [Compound 18a, (E)-N-Hydroxy-2-(2-(4-methoxyphenoxyoxy)ethoxy)-4-methoxycinnamide], the IC50 in assay [1] is 0.122 ± 0.0035 µM; in assay [2] it was above 10 µM.

Regarding `COc1ccc(/C=C/C(=O)NO)c(-c2cccc3[nH]ccc23)c1` [Compound 5f], in assay [1], the “IC50 PCI34051/IC50 compound” value was 0.64 and the “A (relative potency to PCI34051)” value was 0.64. Further, in assay [2], the IC50 was above 10 µM.

The record behind these values is patent US11505523B2, “HDAC8 inhibitors for treating cancer” (City of Hope, priority 2013, dated 2022).
